The source of these data is US20260285855A1, “HETEROARYL DERIVATIVES AS DDRS INHIBITORS” (CHIESI FARMACEUTICI S.P.A., priority 2023, published 2026).

The target of one assay is T1, DDR2 (Homo sapiens, UniProt Q16832).
T1 construct: purchased Life Technologies
T1 sequence (Q16832 22-855): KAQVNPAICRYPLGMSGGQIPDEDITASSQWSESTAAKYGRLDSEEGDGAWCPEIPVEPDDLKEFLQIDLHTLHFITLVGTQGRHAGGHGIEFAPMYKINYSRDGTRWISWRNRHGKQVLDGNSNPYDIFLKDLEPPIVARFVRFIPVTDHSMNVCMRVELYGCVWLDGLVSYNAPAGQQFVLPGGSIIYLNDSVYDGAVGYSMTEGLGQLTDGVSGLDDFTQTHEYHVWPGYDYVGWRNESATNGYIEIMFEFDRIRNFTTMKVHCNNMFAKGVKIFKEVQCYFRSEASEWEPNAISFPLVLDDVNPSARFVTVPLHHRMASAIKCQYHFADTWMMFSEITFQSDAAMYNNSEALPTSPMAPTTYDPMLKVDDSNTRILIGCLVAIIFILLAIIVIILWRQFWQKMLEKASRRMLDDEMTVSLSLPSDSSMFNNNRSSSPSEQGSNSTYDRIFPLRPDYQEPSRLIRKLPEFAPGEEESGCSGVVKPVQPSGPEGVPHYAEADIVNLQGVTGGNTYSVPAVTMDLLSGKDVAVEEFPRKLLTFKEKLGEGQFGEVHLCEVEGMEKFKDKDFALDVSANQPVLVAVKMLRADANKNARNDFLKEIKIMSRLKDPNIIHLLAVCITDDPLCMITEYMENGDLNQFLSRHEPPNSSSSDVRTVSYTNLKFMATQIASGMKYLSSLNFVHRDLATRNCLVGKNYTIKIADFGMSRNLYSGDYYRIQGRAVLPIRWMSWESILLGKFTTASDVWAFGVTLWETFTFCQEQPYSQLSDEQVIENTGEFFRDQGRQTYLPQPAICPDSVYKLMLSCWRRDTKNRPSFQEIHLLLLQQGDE
Nature of the assay: LanthaScreen Europium Kinase Binding assay, DDR2. The method, then: (§1) DDR1 and DDR2 binding assays were performed using Life Technologies LanthaScreen™ Europium Kinase Binding assay. […] IC50 values were determined in GraphPad Prism 7.0 software, using 4 parameter model: log (inhibitor) vs. response. IC50 values were converted in Ki using the Cheng-Prusoff equation (Ki-IC50/(1+ [Tracer]/Kd).
(In TR-FRET formats the signal depends on donor and acceptor labels being close together.)

For a further assay, the target named is T2, DDR1 (Homo sapiens, UniProt Q08345).
T2 construct: purchased Carna Biosciences
Nature of the assay: LanthaScreen Europium Kinase Binding assay, DDR1. The method, then: as §1

Setting [1] is: 5 nM DDR2, 10 nM Kinase Tracer 178, 1 h at rt, Ki from IC50 by Cheng-Prusoff, read-out: Ki DDR2.
Setting [2] is: 5 nM DDR1, 20 nM Kinase Tracer 178, 1 h at rt, Ki from IC50 by Cheng-Prusoff, read-out: Ki DDR1.
Where [3] appears, read: same binding assay, numeric values.

Read-outs that look alike come from different tables or passages of the source.

T2 sequence (Q08345 19-913): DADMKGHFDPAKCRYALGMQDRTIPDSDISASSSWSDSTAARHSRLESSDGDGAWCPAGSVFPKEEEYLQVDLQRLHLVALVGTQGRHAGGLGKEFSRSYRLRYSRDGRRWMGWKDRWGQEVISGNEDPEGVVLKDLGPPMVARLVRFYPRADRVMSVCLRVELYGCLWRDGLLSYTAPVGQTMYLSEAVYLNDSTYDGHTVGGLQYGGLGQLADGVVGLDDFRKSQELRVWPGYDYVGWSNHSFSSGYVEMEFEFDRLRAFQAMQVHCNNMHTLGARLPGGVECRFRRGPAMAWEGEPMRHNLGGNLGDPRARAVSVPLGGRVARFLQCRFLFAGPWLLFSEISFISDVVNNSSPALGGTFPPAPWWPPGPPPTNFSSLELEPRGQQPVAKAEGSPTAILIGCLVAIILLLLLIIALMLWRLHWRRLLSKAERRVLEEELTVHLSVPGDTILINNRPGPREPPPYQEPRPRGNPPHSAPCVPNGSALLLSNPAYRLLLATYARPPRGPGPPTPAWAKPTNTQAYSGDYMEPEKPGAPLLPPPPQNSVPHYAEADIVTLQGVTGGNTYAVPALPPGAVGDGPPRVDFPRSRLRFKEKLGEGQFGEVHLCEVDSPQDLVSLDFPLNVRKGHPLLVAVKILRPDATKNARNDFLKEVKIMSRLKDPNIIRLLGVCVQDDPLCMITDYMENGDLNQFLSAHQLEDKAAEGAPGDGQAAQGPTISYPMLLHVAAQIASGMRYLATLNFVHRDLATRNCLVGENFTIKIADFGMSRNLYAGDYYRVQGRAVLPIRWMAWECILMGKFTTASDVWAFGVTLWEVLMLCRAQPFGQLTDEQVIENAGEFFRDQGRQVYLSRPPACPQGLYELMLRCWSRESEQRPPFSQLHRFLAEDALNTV

Regarding `COc1ccc(OC(F)(F)F)cc1NC(=O)NC1CC2(C1)CN(C(=O)c1cnc3cccnn13)C2` [Example 54, 1-(2-(imidazo[1,2-b]pyridazine-3-carbonyl)-2-azaspiro[3.3]heptan-6-yl)-3-(2-methoxy-5-(trifluoromethoxy)phenyl)urea], the inhibition constant (Ki) at DDR2 (setting [1]) is 5 to 25 nM; on DDR1 (setting [2]), less than 5 nM.
`O=C(CC1CC2(C1)CN(C(=O)c1cnc3ccccn13)C2)Nc1cccc(C(F)(F)F)c1` [Example 28, 2-(2-(imidazo[1,2-a]pyridine-3-carbonyl)-2-azaspiro[3.3]heptan-6-yl)-N-(3-(trifluoromethyl)phenyl)acetamide]: the Ki at DDR2 (setting [1]) is 5 to 25 nM; at DDR1 (setting [2]) it was less than 5 nM.
In the same order, the values of `CN(C(=O)Nc1cc(C(F)(F)F)cc(Br)n1)C1CC2(C1)CN(C(=O)c1cnn3ccn(C)c13)C2` [Example 308, 3-(6-bromo-4-(trifluoromethyl)pyridin-2-yl)-1-methyl-1-(2-(1-methyl-1H-imidazo[1,2-b]pyrazole-7-carbonyl)-2-azaspiro[3.3]heptan-6-yl)urea] are less than 5 nM and less than 5 nM.
The corresponding values for `O=C(Nc1cccc(OC(F)(F)F)c1)NC1CC2(C1)CN(C(=O)c1cnn3ccsc13)C2` [Example 21, 1-(2-(pyrazolo[5,1-b]thiazole-7-carbonyl)-2-azaspiro[3.3]heptan-6-yl)-3-(3-(trifluoromethoxy)phenyl)urea] are less than 5 nM and less than 5 nM.
Take `Cn1ccn2ncc(C(=O)N3CC4(CC(NC(=O)Nc5cccc(CC(F)(F)F)c5)C4)C3)c12` [Example 34, 1-(2-(1-methyl-1H-imidazo[1,2-b]pyrazole-7-carbonyl)-2-azaspiro[3.3]heptan-6-yl)-3-(3-(2,2,2-trifluoroethyl)phenyl)urea]: the Ki on DDR2 (setting [1]) and at DDR1 (setting [2]) was less than 5 nM throughout.
In the case of `Cc1c(-c2ccc3c(C(=O)N4CC5(CC(N(C)C(=O)Nc6cncc(C(F)(F)F)c6)C5)C4)cnn3c2)cnn1C` [Example 261, 1-(2-(6-(1,5-dimethyl-1H-pyrazol-4-yl)pyrazolo[1,5-a]pyridine-3-carbonyl)-2-azaspiro[3.3]heptan-6-yl)-1-methyl-3-(5-(trifluoromethyl)pyridin-3-yl)urea], the Ki on DDR2 (setting [1]) was 5 to 25 nM; on DDR1 (setting [2]), less than 5 nM.
Turning to `Cc1cc(NC(=O)N(C)C2CC3(C2)CN(C(=O)c2cnn4ccn(C)c24)C3)cc(OC(F)(F)F)c1` [Example 281, 1-methyl-1-(2-(1-methyl-1H-imidazo[1,2-b]pyrazole-7-carbonyl)-2-azaspiro[3.3]heptan-6-yl)-3-(3-methyl-5-(trifluoromethoxy)phenyl)urea], the inhibitory constant (Ki) on DDR2 (setting [1]) is 5 to 25 nM; on DDR1 (setting [2]), less than 5 nM.
The corresponding values for `CN(C(=O)Nc1cc(OC(F)(F)F)ccn1)C1CC2(C1)CN(C(=O)c1cnn3ccsc13)C2` [Example 114, 1-methyl-1-(2-(pyrazolo[5,1-b]thiazole-7-carbonyl)-2-azaspiro[3.3]heptan-6-yl)-3-(4-(trifluoromethoxy)pyridin-2-yl)urea] are 5 to 25 nM and less than 5 nM.
In the same order, the values of `O=C(Nc1cccc(C(F)(F)F)c1)NC1CC2(C1)CN(C(=O)c1ncnc3sccc13)C2` [Example 88, 1-(2-(thieno[2,3-d]pyrimidine-4-carbonyl)-2-azaspiro[3.3]heptan-6-yl)-3-(3-(trifluoromethyl)phenyl)urea] are 5 to 25 nM and less than 5 nM.
In the same order, the values of `Cn1ccn2ncc(C(=O)N3CC4(CC(N(CC(F)(F)F)C(=O)Nc5cccc(C(F)(F)F)c5)C4)C3)c12` [Example 174, 1-(2-(1-methyl-1H-imidazo[1,2-b]pyrazole-7-carbonyl)-2-azaspiro[3.3]heptan-6-yl)-1-(2,2,2-trifluoroethyl)-3-(3-(trifluoromethyl)phenyl)urea] are 5 to 25 nM and less than 5 nM.
`COCCn1ccn2ncc(C(=O)N3CC4(CC(N(C)C(=O)Nc5cccc(C(F)(F)F)c5)C4)C3)c12` [Example 203, 1-(2-(1-(2-methoxyethyl)-1H-imidazo[1,2-b]pyrazole-7-carbonyl)-2-azaspiro[3.3]heptan-6-yl)-1-methyl-3-(3-(trifluoromethyl)phenyl)urea]: the Ki was 5 to 25 nM on DDR2 (setting [1]) and less than 5 nM at DDR1 (setting [2]).
Take `CN(C(=O)Nc1cc(C(F)F)ccn1)C1CC2(C1)CN(C(=O)c1cnn3ccsc13)C2` [Example 255, 3-(4-(difluoromethyl)pyridin-2-yl)-1-methyl-1-(2-(pyrazolo[5,1-b]thiazole-7-carbonyl)-2-azaspiro[3.3]heptan-6-yl)urea]: the Ki on DDR2 (setting [1]) is 5 to 25 nM; on DDR1 (setting [2]) it was less than 5 nM.
In the same order, the values of `COc1c(CO)cc(OC(F)(F)F)cc1NC(=O)NC1CC2(C1)CN(C(=O)c1cnn3ccncc13)C2` [Example 212, 1-(3-(hydroxymethyl)-2-methoxy-5-(trifluoromethoxy)phenyl)-3-(2-(pyrazolo[1,5-a]pyrazine-3-carbonyl)-2-azaspiro[3.3]heptan-6-yl)urea] are 25 to 100 nM and 5 to 25 nM.
In the same order, the values of `Cn1ccn2ncc(C(=O)N3CC4(CC(NC(=O)Nc5cccc(C(F)F)c5)C4)C3)c12` [Example 63, 1-(3-(difluoromethyl)phenyl)-3-(2-(1-methyl-1H-imidazo[1,2-b]pyrazole-7-carbonyl)-2-azaspiro[3.3]heptan-6-yl)urea] are 5 to 25 nM and less than 5 nM.
In the same order, the values of `CN(C(=O)Nc1cncc(C(F)(F)F)c1)C1CC2(C1)CN(C(=O)c1cnn3ccn(C)c13)C2` [Example 169, 1-methyl-1-(2-(1-methyl-1H-imidazo[1,2-b]pyrazole-7-carbonyl)-2-azaspiro[3.3]heptan-6-yl)-3-(5-(trifluoromethyl)pyridin-3-yl)urea] are 5 to 25 nM and less than 5 nM.
Take `O=C(Nc1cccc(C(F)(F)F)c1)NC1CC2(C1)CN(c1cnc3[nH]ncc3c1)C2` [Example 138, 1-(2-(1H-pyrazolo[3,4-b]pyridine-5-yl)-2-azaspiro[3.3]heptan-6-yl)-3-(3-(trifluoromethyl)phenyl)urea]: the Ki on DDR2 (setting [1]) and at DDR1 (setting [2]) was less than 5 nM in each case.
Take `CCc1ccc(C(F)(F)F)cc1NC(=O)NC1CC2(C1)CN(C(=O)c1cnn3ccn(C)c13)C2` [Example 282, 1-(2-ethyl-5-(trifluoromethyl)phenyl)-3-(2-(1-methyl-1H-imidazo[1,2-b]pyrazole-7-carbonyl)-2-azaspiro[3.3]heptan-6-yl)urea]: the Ki on DDR2 (setting [1]) and at DDR1 (setting [2]) was less than 5 nM throughout.
In the case of `O=C(Cc1cccc(C(F)(F)F)c1)NC1CC2(C1)CN(C(=O)c1cnn3ccncc13)C2` [Example C2, N-(2-(pyrazolo[1,5-a]pyrazine-3-carbonyl)-2-azaspiro[3.3]heptan-6-yl)-2-(3-(trifluoromethyl)phenyl)acetamide, reference compound], the “DDR2 Ki (nM)” value on DDR2 (setting [3]) is “did not show a binding affinity”. Further, the Ki at DDR2 (same binding assay, numeric values, read-out: DDR2 Ki) is more than 500 nM; at DDR1 (same binding assay, numeric values, read-out: DDR1 Ki) it was more than 500 nM. Moreover, the “DDR1 Ki (nM)” value on DDR1 (setting [3]) is on record as “did not show a binding affinity”.
Consider `O=C(Nc1cccc(C(F)(F)F)c1)NC1CC2(C1)CN(C(=O)c1cnc3n1CCOC3)C2` [Example 6, 1-(2-(5,6-dihydro-8H-imidazo[2,1-c][1,4]oxazine-3-carbonyl)-2-azaspiro[3.3]heptan-6-yl)-3-(3-(trifluoromethyl)phenyl)urea], for which the Ki was 5 to 25 nM on DDR2 (setting [1]) and less than 5 nM on DDR1 (setting [2]).
The corresponding values for `COc1ccc(-c2ccc3c(C(=O)N4CC5(CC(N(C)C(=O)Nc6cncc(C(F)(F)F)c6)C5)C4)cnn3c2)cc1OC` [Example 233, 1-(2-(6-(3,4-dimethoxyphenyl)pyrazolo [1,5-a]pyridine-3-carbonyl)-2-azaspiro[3.3]heptan-6-yl)-1-methyl-3-(5-(trifluoromethyl)pyridin-3-yl)urea] are 5 to 25 nM and less than 5 nM.
`Cn1cncc1C(=O)N1CC2(CC(NC(=O)Nc3cccc(C(F)(F)F)c3)C2)C1` [Example 8, 1-(2-(1-methyl-1H-imidazole-5-carbonyl)-2-azaspiro[3.3]heptan-6-yl)-3-(3-(trifluoromethyl)phenyl)urea]: the Ki on DDR2 (setting [1]) was 5 to 25 nM; at DDR1 (setting [2]), less than 5 nM.
Take `Cc1ncc(C(F)(F)F)cc1NC(=O)NC1CC2(C1)CN(C(=O)c1cnn3ccsc13)C2` [Example 165, 1-(2-methyl-5-(trifluoromethyl)pyridin-3-yl)-3-(2-(pyrazolo[5,1-b]thiazole-7-carbonyl)-2-azaspiro[3.3]heptan-6-yl)urea]: the values for the Ki on DDR2 (setting [1]) and on DDR1 (setting [2]) were 5 to 25 nM and less than 5 nM, respectively.

What is called Ki is a dissociation constant, usually derived from enzyme kinetics or from competition with a known ligand.
